From ChEMBL document CHEMBL6177930, “2-(4-Bromobenzyl) tethered 4-amino aryl/alkyl-5,6,7,8-tetrahydrobenzo[4,5]thieno[2,3-d]pyrimidines: design, synthesis, anticancer assessment via dual topoisomerase-I/II inhibition, and in silico studies” (RSC Med Chem, 2025)

Experiments:
MCF7 = test: Antiproliferative activity against human MCF7 cells assessed as inhibition of cell growth at 10 uM measured after 48 to 72 hrs by MTT assay relative to control; type: functional; settings: time 48-72 hrs
MDA-MB-231 = test: Antiproliferative activity against human MDA-MB-231 cells assessed as inhibition of cell growth at 10 uM measured after 48 to 72 hrs by MTT assay relative to control; type: functional; settings: time 48-72 hrs
FaDu = test: Antiproliferative activity against human FaDu cells assessed as inhibition of cell growth at 10 uM measured after 48 to 72 hrs by MTT assay relative to control; type: functional; settings: time 48-72 hrs
T47D = test: Antiproliferative activity against human T47D cells assessed as inhibition of cell growth at 10 uM measured after 48 to 72 hrs by MTT assay relative to control; type: functional; settings: time 48-72 hrs
A549 = test: Antiproliferative activity against human A549 cells assessed as inhibition of cell growth at 10 uM measured after 48 to 72 hrs by MTT assay relative to control; type: functional; settings: time 48-72 hrs
[1] = Antiproliferative activity against human HCC cells assessed as inhibition of cell growth at 10 uM measured after 48 to 72 hrs by MTT assay relative to control; type: functional; settings: time 48-72 hrs
[2] = target: T1, DNA topoisomerase 1 (Homo sapiens) (UniProt P11387); test: Inhibition of human topoisomerase-I extracted from baculovirus expression system assessed as relaxation of supercoiled DNA using SC-DNA as substrate incubated for 30 mins by EtBr staining based agarose gel electrophoresis method
T1 sequence (whole entry): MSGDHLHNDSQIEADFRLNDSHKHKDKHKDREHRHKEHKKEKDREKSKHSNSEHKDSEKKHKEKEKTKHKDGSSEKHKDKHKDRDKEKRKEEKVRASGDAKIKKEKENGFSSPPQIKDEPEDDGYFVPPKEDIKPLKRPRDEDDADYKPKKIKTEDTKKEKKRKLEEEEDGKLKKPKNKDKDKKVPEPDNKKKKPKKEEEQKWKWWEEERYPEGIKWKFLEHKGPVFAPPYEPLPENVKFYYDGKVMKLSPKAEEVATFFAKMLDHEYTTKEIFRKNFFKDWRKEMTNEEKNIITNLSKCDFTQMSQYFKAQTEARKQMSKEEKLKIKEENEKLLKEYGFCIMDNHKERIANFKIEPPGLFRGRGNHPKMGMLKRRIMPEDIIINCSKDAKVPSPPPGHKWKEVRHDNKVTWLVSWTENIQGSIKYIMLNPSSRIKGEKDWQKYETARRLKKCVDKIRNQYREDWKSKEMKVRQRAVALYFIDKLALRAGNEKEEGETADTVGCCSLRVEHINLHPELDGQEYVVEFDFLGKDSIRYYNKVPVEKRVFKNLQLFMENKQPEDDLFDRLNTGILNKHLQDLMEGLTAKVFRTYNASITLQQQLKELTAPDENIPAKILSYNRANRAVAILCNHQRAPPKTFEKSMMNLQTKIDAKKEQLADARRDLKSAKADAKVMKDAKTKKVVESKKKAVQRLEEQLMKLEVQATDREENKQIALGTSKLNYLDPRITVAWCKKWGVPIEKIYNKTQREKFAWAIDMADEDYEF

HEK293 = test: Antiproliferative activity against HEK293 cells assessed as inhibition of cell growth at 10 to 25 uM measured after 48 to 72 hrs by MTT assay; type: toxicity, cell-based; settings: human, hek293, 25 µM; dose lower 10 µM, time lower 48 hrs, dose upper 25 µM, time upper 72 hrs
[3] = target: T1, DNA topoisomerase 1 (Homo sapiens); test: Inhibition of human topoisomerase-I extracted from baculovirus expression system using SC-DNA as substrate incubated for 30 mins by EtBr staining based agarose gel electrophoresis method
[4] = target: DNA topoisomerase 2-alpha (Homo sapiens) (UniProt P11388); test: Inhibition of human topoisomerase-II alpha assessed as reduction in decatenation activity using kinetoplast DNA as substrate incubated for 30 mins by EtBr staining based agarose gel electrophoresis method
[5] = target: T2, Prostaglandin G/H synthase 2 (Homo sapiens) (UniProt P35354); test: Inhibition of human recombinant COX-2 at 10 uM relative to control
T2 sequence (whole entry): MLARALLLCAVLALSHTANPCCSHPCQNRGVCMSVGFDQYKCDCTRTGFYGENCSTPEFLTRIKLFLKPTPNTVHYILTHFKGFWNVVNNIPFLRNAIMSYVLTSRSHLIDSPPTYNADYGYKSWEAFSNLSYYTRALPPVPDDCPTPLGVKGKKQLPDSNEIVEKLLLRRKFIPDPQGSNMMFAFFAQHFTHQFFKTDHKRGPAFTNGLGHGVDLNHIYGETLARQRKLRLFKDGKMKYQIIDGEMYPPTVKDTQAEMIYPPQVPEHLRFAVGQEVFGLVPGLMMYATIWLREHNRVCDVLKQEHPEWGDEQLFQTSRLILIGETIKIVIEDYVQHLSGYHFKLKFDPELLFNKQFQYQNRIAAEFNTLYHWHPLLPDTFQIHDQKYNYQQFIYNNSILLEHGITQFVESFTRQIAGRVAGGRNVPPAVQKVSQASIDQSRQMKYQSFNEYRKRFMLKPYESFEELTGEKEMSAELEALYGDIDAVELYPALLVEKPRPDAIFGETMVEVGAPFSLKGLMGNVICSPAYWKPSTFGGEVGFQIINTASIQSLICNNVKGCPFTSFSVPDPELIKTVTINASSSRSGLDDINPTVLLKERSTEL

[6] = target: T3, Prostaglandin G/H synthase 1 (Ovis aries) (UniProt P05979); test: Inhibition of ovine COX-1 at 10 uM relative to control
T3 sequence (whole entry): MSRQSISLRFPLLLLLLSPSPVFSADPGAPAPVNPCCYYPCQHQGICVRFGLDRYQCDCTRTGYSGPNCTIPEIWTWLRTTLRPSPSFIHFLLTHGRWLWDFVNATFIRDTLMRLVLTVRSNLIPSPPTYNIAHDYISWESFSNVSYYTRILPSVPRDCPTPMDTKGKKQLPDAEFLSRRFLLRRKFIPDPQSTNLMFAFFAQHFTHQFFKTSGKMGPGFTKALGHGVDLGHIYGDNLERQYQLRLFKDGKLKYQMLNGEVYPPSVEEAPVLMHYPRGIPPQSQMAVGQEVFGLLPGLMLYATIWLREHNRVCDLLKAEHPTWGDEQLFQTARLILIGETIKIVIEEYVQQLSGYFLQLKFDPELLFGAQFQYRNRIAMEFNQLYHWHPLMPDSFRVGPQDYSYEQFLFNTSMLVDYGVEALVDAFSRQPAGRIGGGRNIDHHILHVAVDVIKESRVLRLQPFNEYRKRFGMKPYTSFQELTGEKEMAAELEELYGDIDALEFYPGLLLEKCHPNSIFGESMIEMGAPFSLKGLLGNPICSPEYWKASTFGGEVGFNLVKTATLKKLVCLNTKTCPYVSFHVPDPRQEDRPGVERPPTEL

DNA topoisomerase 2-alpha (Homo sapiens), sequence (P11388 whole entry): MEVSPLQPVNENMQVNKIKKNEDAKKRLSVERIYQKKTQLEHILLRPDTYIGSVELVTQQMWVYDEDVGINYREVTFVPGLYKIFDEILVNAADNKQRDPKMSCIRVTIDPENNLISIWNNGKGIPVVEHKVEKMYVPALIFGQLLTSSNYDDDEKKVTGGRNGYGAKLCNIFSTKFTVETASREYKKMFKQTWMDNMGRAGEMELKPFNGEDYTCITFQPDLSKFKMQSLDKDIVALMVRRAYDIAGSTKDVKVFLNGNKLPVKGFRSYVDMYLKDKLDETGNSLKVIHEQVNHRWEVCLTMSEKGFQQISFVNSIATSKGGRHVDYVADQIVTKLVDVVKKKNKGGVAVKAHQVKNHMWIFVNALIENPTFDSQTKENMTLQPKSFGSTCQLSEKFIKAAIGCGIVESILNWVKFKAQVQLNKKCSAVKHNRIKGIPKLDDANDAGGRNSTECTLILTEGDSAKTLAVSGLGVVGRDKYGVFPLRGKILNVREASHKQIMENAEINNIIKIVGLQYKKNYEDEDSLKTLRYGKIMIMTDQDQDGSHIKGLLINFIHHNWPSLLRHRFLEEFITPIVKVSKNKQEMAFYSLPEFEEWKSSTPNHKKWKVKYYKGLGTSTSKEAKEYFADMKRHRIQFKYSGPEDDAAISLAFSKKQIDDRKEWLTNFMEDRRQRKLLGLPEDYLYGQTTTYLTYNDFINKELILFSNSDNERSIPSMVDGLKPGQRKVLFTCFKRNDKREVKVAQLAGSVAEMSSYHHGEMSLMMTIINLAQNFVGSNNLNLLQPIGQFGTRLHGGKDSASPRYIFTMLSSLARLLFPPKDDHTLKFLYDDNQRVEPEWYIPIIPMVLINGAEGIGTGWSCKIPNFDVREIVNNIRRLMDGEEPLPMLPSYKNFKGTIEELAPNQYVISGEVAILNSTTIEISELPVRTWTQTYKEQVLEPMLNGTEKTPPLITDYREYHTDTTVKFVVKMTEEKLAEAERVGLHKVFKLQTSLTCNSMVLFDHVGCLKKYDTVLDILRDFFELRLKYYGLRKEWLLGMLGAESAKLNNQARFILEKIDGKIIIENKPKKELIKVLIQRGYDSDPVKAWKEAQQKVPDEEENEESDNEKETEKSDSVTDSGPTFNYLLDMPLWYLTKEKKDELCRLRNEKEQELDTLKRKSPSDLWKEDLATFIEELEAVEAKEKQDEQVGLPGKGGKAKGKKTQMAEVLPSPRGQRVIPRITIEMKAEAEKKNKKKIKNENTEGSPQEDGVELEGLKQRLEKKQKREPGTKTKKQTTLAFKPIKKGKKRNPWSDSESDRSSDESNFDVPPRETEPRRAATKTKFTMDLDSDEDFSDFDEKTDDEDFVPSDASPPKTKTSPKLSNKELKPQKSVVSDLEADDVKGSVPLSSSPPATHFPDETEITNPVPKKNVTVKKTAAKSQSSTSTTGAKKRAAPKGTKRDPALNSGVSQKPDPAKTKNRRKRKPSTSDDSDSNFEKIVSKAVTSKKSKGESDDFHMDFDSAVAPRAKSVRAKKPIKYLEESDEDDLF

Compound | inhibition at 10 µM (MCF7) [%] | inhibition at 10 µM (MDA-MB-231) [%] | inhibition at 10 µM (FaDu) [%] | inhibition at 10 µM (T47D) [%] | inhibition at 10 µM (A549) [%] | inhibition at 10 µM [1] [%] | inhibition [2] | Activity (HEK293) | inhibition [3] | inhibition [4] | inhibition [5] [%] | inhibition [6] [%]
COc1ccc(CNc2nc(Cc3ccc(Br)cc3)nc3sc4c(c23)CCCC4)cc1 | 29.6 | 13.7 | 26.8 | 1.05 | 1.69 | 1.01 | – | – | – | – | – | –
Brc1ccc(Cc2nc(-n3ccnc3)c3c4c(sc3n2)CCCC4)cc1 | 3.19 | 12.8 | 46.9 | 1.99 | 2.45 | 2.03 | – | – | – | – | – | –
CCN(CC)c1nc(Cc2ccc(Br)cc2)nc2sc3c(c12)CCCC3 | 15.7 | 1.91 | 34.2 | 2.88 | 2.22 | 1.47 | – | – | – | – | – | –
CNc1nc(Cc2ccc(Br)cc2)nc2sc3c(c12)CCCC3 | 18.7 | 1.09 | 23.4 | 1.69 | 2.65 | 1.28 | – | – | – | – | – | –
Brc1ccc(Cc2nc(NCc3ccccn3)c3c4c(sc3n2)CCCC4)cc1 | 4.03 | 1.25 | 29.1 | 17.9 | 3.32 | 2.05 | – | – | – | – | – | –
OCCNc1nc(Cc2ccc(Br)cc2)nc2sc3c(c12)CCCC3 | 2.71 | 2.1 | 50.2 | 5.73 | 1.21 | 2 | – | – | – | – | – | –
C#Cc1cccc(Nc2ncnc3cc(OCCOC)c(OCCOC)cc23)c1 [ERLOTINIB] | 6.71 | 19.6 | 19.7 | 1.27 | – | 4.19 | – | – | – | – | – | –
Brc1ccc(Cc2nc(NCCN3CCNCC3)c3c4c(sc3n2)CCCC4)cc1 | 19.4 | 1.23 | 74.7 | 54 | 34.2 | 1.24 | Active; Compound Showed Significant Inhibition Than Compound 7A | Non-toxic | Active; Compound Showed Potent Inhibition Activity Than Camptothecin | Active; Compound Showed Weak Effect | 57.9 | 28.5
Clc1ccccc1CNc1nc(Cc2ccc(Br)cc2)nc2sc3c(c12)CCCC3 | 9.51 | 0.1 | 18.1 | 3.69 | 2.67 | 1.55 | – | – | – | – | – | –
Brc1ccc(Cc2nc(N3CCCC3)c3c4c(sc3n2)CCCC4)cc1 | 19.4 | 8.72 | 49.2 | 3.74 | 10.3 | 1.36 | – | – | – | – | – | –
Fc1cc(CNc2nc(Cc3ccc(Br)cc3)nc3sc4c(c23)CCCC4)cc(F)c1F | 8.28 | 2.39 | 25.8 | 3.01 | 6.63 | 1.57 | – | – | – | – | – | –
Brc1ccc(Cc2nc(NC3CCCCC3)c3c4c(sc3n2)CCCC4)cc1 | 19 | 1.22 | 27.4 | 1.35 | 1.56 | 12.8 | – | – | – | – | – | –
Brc1ccc(Cc2nc(NC3CC3)c3c4c(sc3n2)CCCC4)cc1 | 38.5 | 2.23 | 28.9 | 1.31 | 1.11 | 2.11 | – | – | – | – | – | –
Fc1ccccc1CNc1nc(Cc2ccc(Br)cc2)nc2sc3c(c12)CCCC3 | 19.4 | 6.27 | 26.2 | 2.14 | 3.45 | 2.55 | – | – | – | – | – | –
Fc1ccc(CNc2nc(Cc3ccc(Br)cc3)nc3sc4c(c23)CCCC4)cc1 | 0.55 | 10.8 | 21.4 | 2.58 | 1.55 | 1.36 | – | – | – | – | – | –
CC(C)(C)OC(=O)N1CCN(c2nc(Cc3ccc(Br)cc3)nc3sc4c(c23)CCCC4)CC1 | 15.1 | 38.9 | 16.6 | 3.33 | 0.29 | 2.01 | – | – | – | – | – | –
CCCNc1nc(Cc2ccc(Br)cc2)nc2sc3c(c12)CCCC3 | 3.16 | 3.11 | 56.2 | 17.3 | 3.63 | 1.37 | – | – | – | – | – | –
C=CCNc1nc(Cc2ccc(Br)cc2)nc2sc3c(c12)CCCC3 | 20.5 | 1.17 | 45.2 | 2.35 | 2.89 | 1.55 | – | – | – | – | – | –
Nc1ccccc1CNc1nc(Cc2ccc(Br)cc2)nc2sc3c(c12)CCCC3 | 2.66 | 5.74 | 25.9 | 1.79 | 1.33 | 1.89 | – | – | – | – | – | –
NCCCNc1nc(Cc2ccc(Br)cc2)nc2sc3c(c12)CCCC3 | 8.28 | 1.12 | 54.1 | 8.24 | 8.86 | 8.12 | – | – | – | – | – | –
Brc1ccc(Cc2nc(NCc3ccccc3)c3c4c(sc3n2)CCCC4)cc1 | 0.55 | 4.99 | 24.3 | 11.2 | 3.12 | 1.79 | – | – | – | – | – | –
